Laboratory results as given in paper PMC7498612, “A rationally designed bicyclic peptide remodels Aβ42 aggregation in vitro and reduces its toxicity in a worm model of Alzheimer’s disease” (Scientific Reports, 2020).
Where a SMILES comes first, the peptide text is derived from it.

Tests used:
Aβ42 monomers = biological target: T1, Aβ42 monomers (Homo sapiens, UniProt P05067); experiment: Bio-layer interferometry (BLI) binding of DesBP to sensor-coupled Aβ42 monomers; details: DesBP 50 and 100 μM, 30 °C
T1 construct: the 42-residue form of the amyloid β peptide (Aβ42)
Method: To test for direct peptide-peptide interaction, biolayer interferometry (BLI) was performed on the Octet RED96 System (ForteBio, Menlo Park, USA). DesBP was used as interaction partner for sensor-coupled Aβ42. Coupled sensors were first dipped into ForteBio kinetics buffer (PBS, 0.1% BSA, 0.02% Tween20 and 0.05% sodium azide, pH 7.4) to establish a stable baseline, then into different concentrations of DesBP and finally in pure kinetics buffer again to monitor dissociation. Both association and dissociation processes were monitored at 30 °C over 50 and 200 s, respectively. In the data analysis, all curves were globally fit with a 1:1 binding model.

N2 worms = experiment: C. elegans N2 control worms motility / fitness; type: in vivo; details: same concentration of DesBP (40 μM); compared to effect on Aβ worms
Description: We thus administered DesBP to Aβ worms at day 4 (D4) of adulthood, when Aβ42 aggregates are already formed, and paralysis is ongoing, and compared the resulting effects of the addition of DesBP to those observed in a control worm model, N2 (see “Materials and methods” section). […] On the other hand, the effects of the same concentration of DesBP to control N2 worms were negligible when compared to the effect observed on Aβ worms (Supplementary Fig. 12).
Media Standard conditions were used for the propagation of C. elegans. Briefly, the animals were synchronized by hypochlorite bleaching, hatched overnight in M9 (3 g/l KH2PO4, 6 g/l Na2HPO4, 5 g/l NaCl, […]) buffer, and subsequently cultured at 20 °C on nematode growth medium (NGM) (CaCl2 1 mM, MgSO4 1 mM, cholesterol 5 µg/ml, […] pH 6, Agar 17 g/L, NaCl 3 g/l, casein 7.5 g/l) plates seeded with the E. coli strain OP50. Saturated cultures of OP50 were grown by inoculating 50 mL of LB medium (tryptone 10 g/l, NaCl 10 g/l, yeast extract 5 g/l) with OP50 and incubating the culture for 16 h at 37 °C. NGM plates were seeded with bacteria by adding 350 µl of saturated OP50 to each plate and leaving the plates at 20 °C for 2–3 days. On day 3 after synchronization, the animals were placed on NGM plates containing 5-fluoro-2′deoxy-uridine (FUDR) (75 μM, unless stated otherwise) to inhibit the growth of offspring. […]

[1] = system: islet amyloid polypeptide, Aβ and α-synuclein; details: cited from earlier work
Description: In this study, we apply this design strategy to generate a bicyclic peptide capable of binding Aβ42 and of interfering with its aggregation process. The aggregation of Aβ42 is a complex process resulting from the combination of different microscopic steps and involving a variety of molecular species[35],[36]. […] Therefore, some therapeutic strategies aim at decreasing the concentrations of these oligomeric species by delaying or preventing their formatio ...

Aβ42 = experiment: ThT fluorescence aggregation kinetics of Aβ42; type: biochemical; details: ThT assay
Method: In order to investigate the effects of DesBP on the aggregation of Aβ42, we carried out in vitro aggregation assays using thioflavin T (ThT) as an amyloid-specific fluorescent probe[63],[64]. We monitored fibril formation for Aβ42 at a concentration of 2 µM in the absence and presence of a range of concentrations (0.25–16 fold excess) of DesBP at 37 °C under quiescent conditions, using a highly reproducible protocol previously described. We then validated our results by means of far-UV circular dichroism (CD) and atomic force microscopy (AFM).
Monomeric Aβ42 peptide solutions were prepared by dissolving the lyophilized peptide in 6 M GuHCl. A Superdex 75 10/300 GL column (GE Healthcare) was used to purify Aβ42 monomers from Aβ42 oligomers and salt with a flow rate of 0.5 ml/min, and eluted in 20 mM sodium phosphate buffer (pH 8) with 200 μM EDTA. By collecting the centres of the peaks, the monomeric Aβ42 concentrations were determined from the integrated peak area with ε280 = 1,495 L mol^−1 cm^−1. Aβ42 monomers were then diluted to the target concentration with buffer and 20 μM ThT was added from a 1 mM stock. […] Assays were carried out at 37 °C under quiescent conditions in a plate reader (Fluostar Optima; BMG Labtech). ThT fluorescence was measured through the bottom of the plate with 440 nm excitation and 480 nm emission filters, with five repeats per sample. […]

## CC[C@H](C)[C@@H]1NC(=O)CNC(=O)[C@H](CC(C)C)NC(=O)[C@H](CCCCN)NC(=O)[C@@H](NC(=O)[C@H](C)NC(=O)[C@H](C)NC(=O)[C@@H](N)CCCNC(=N)N)CSCc2cc3cc(c2)CSC[C@H](NC(=O)[C@H](C)NC(=O)[C@H](CCCCN)NC1=O)C(=O)N[C@@H]([C@@H](C)O)C(=O)N[C@@H](CO)C(=O)N[C@@H](C(C)C)C(=O)N[C@@H](Cc1ccc(O)cc1)C(=O)N[C@@H](Cc1c[nH]cn1)C(=O)N[C@@H](C)C(=O)N[C@H](C(=O)NCC(=O)NCC(=O)N[C@@H](CCCCN)C(=O)N[C@@H](CCCNC(=N)N)C(=O)N[C@@H](CCCNC(=N)N)C(=O)O)CSC3 [DesBP] (HELM PEPTIDE1{R.A.A.C.K.L.G.I.K.A.C.T.S.V.Y.H.A.C.G.G.K.R.R}|CHEM1{[c1c(C[*:1])cc(C[*:3])cc1C[*:2]]}$PEPTIDE1,CHEM1,4:R3-1:R1|PEPTIDE1,CHEM1,11:R3-1:R2|PEPTIDE1,CHEM1,18:R3-1:R3$$$V2.0)
Aβ42 monomers; pH 7.4, single-exponential fit, read-out: dissociation rate kd
  koff: 0.06 ± 0.002 s⁻¹
Aβ42 monomers; Octet RED96, kinetics buffer PBS, 0.1% BSA, 0.02% Tween20, pH 7.4, association 50 s, dissociation 200 s, global fit 1:1 binding model, read-out: dissociation constant (KD)
  Kd: 640 ± 260 µM
N2 worms
  effect on control N2 worms: negligible

## O=C(O[C@@H]1Cc2c(O)cc(O)cc2O[C@@H]1c1cc(O)c(O)c(O)c1)c1cc(O)c(O)c(O)c1 [EGCG, epigallocatechin gallate]
[1]
  modulation of aggregation process: redirecting them towards the formation of non-toxic aggregates

## Cc1cc(C)cc(C)c1 [TMB, 1,3,5-trimethylbenzene]
Aβ42; Supplementary Fig. 7
  effect on Aβ42 aggregation (control compounds): slightly delayed the nucleation step of Aβ42 aggregation
Aβ42; Supplementary Fig. 7b
  magnitude of ThT fluorescence (control compound): did not show significant changes on the magnitude of ThT fluorescence

## CC(C)[C@@H](CC[C@@H](C)[C@H]1CC[C@H]2[C@@H]3[C@H](O)C[C@H]4C[C@@H](NCCCNCCCCNCCCN)CC[C@]4(C)[C@H]3CC[C@]12C)OS(=O)(=O)O [trodusquemine]
[1]
  modulation of aggregation process: redirecting them towards the formation of non-toxic aggregates
